Values quoted from earlier work in US20060008520A1, “Delayed release formulations of 6-mercaptopurine” (priority 2004, published 2006).

SMILES: Sc1ncnc2nc[nH]c12 [6-MP, 6-mercaptopurine]
- fraction of an oral dose absorbed: Approximately 50%
